± gives the expanded uncertainty stated by the source.
What was measured:
[1] = Molar enthalpy of transition or fusion; conditions: Crystal; DSC
[2] = Crystal; DSC

For `C[C@]12CCC3=C4CCC(=O)C=C4CC[C@H]3[C@@H]1CC[C@@]2(O)CC#N` [dienogest], the “Molar enthalpy of transition or fusion” value [1] was 7.23 ± 0.335 kcal/mol and the Triple point temperature [2] was 485.01 ± 0.81 K.

From the NIST ThermoML archive (doi:10.1021/acs.jced.9b00696)
